Source: patent US9333222B2, “Histone deacetylase inhibitors as therapeutic agents for Niemann-Pick type C disease” (University of Notre Dame du Lac, priority 2009, dated 2016)
Where two headings read alike, the source gives them in different places.

Key:
[1] = tested on: NPC1 human fibroblast GM18453 cells; experiment: Filipin microscopy assay of free cholesterol in LSO (LSO ratio); format: cell-based
Method: Next, the effect of HDACi on NPC1I1061T homozygous NPC1 human fibroblasts (GM18453) and on NPC2 human fibroblasts (GM18445) was evaluated. Briefly, NPC1 human fibroblast GM18453 cells and NPC2 human fibroblast GM18455 cells were seeded in five 384-well plates in growth medium. […] Cells were incubated at 37° C. in the presence of 5% CO2 atmosphere for 48 hours. […] Images were analyzed to obtain an LSO ratio and data were normalized to corresponding DMSO-treated cells. […] The dotted horizontal lines indicate mean values for the solvent control, and error bars represent the standard error.
Briefly, NPC1 human fibroblast GM18453 cells and NPC2 human fibroblast GM18455 cells were seeded in five 384-well plates in growth medium. […] Cells were incubated at 37° C. in the presence of 5% CO2 atmosphere for 48 hours. […] Images were analyzed to obtain an LSO ratio, and data were normalized to corresponding DMSO-treated cells. […] The dotted horizontal lines indicate mean values for the solvent control, and the error bars represent the standard error.

[2] = tested on: NPC1 human fibroblast GM03123 cells; experiment: Filipin microscopy assay of free cholesterol in lysosomal storage organelles (LSO ratio); format: cell-based; conditions: for effect on NPC1 phenotype: after 4 hours; for EC50: read-out: EC50 for correcting the NPC1 phenotype
Method: Images were acquired with wide-field microscopy at 10× magnification. […] The effect of each HDACi on NPC1 human fibroblasts was then determined at varying concentrations and times. […] Briefly, NPC1 human fibroblast GM03123 cells were seeded in five 384-well plates in growth medium. […] HDACi were allowed to remain in the culture medium for 72, 48, 24, 4, and 0 hours of treatment. For the control, cells were treated with a corresponding concentration of dimethyl sulfoxide (DMSO). HDACi were added to five wells for each concentration. […] Images were analyzed to obtain an LSO ratio and data were normalized to corresponding DMSO-treated cells.

[3] = molecular target: HDAC2 (Homo sapiens, UniProt Q92769); conditions: read-out: Inhibition constant Ki HDAC2; cited from earlier work
[4] = Homo sapiens, Fibroblast, after 48 hours

HDAC2, sequence (Q92769 whole entry, species assumed): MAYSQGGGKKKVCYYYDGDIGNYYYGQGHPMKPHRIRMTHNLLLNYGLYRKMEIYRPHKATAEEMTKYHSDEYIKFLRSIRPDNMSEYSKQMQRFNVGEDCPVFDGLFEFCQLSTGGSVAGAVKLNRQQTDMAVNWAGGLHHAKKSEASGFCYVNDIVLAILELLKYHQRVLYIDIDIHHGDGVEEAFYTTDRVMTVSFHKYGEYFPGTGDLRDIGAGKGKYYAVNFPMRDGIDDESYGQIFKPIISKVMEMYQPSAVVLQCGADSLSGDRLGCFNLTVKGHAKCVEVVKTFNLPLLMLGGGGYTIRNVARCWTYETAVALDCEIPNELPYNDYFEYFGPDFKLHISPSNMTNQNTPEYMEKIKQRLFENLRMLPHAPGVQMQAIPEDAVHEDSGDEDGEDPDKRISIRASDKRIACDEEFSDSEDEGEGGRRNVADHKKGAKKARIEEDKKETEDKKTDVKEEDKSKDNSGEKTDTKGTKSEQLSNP

COc1ccc(Cn2ccc3ccc(C(=O)NO)cc32)cc1 [PCI-34051]
correction of the NPC1 phenotype ([1]; 40 nM to 10 μM, 48 hours, NPC1 human fibroblasts (FIG. 6)): no correction of the NPC1 phenotype

O=C(CCCCCCC(=O)Nc1ccccc1)NO [SAHA, vorinostat]
effect on NPC1 phenotype ([2]; GM03123): no effect

O=C(CCCCCCC(=O)Nc1cccnc1)NO [Pyroxamide]
Ki [3]: 3.6 nM | EC50 [2, 4]: ~1000 nM

CCCCOc1ccc(CC(=O)NO)cc1 [Bufexamac]
correction of the NPC1 phenotype ([2]; various concentrations (0.04-10 μM) and times (4-72 hours), GM03123): no correction of the NPC1 phenotype

CC(=O)Nc1ccc(C(=O)Nc2ccccc2N)cc1 [CL-994]
EC50 [2, 4]: ~1000 nM | effect on NPC1 phenotype ([2]; GM03123): no effect

CC(/C=C/C(=O)NO)=C\[C@@H](C)C(=O)c1ccc(N(C)C)cc1 [TSA, trichostatin A]
EC50 ([2]; after 48 hours): ~20 nM

Cc1[nH]c2ccccc2c1CCNCc1ccc(/C=C/C(=O)NO)cc1 [LBH-589, panobinostat]
EC50 ([2]; Homo sapiens, Fibroblast, 48 h): < 4 nM | concentration of highest efficacy in correcting the NPC1 phenotype ([1]; 48-hour treatment, GM18453): 37 nM
